Values after ≈ are worked out from the molar mass of the structure shown.
Assays:
[1] = tested on: TREx™-mG2A-NFAT-bla Freestyle293F cells; experiment: TREx-mG2A-NFAT-bla Freestyle293F (mouse G2A) doxycycline response; type: cell-based; conditions: Homo sapiens, FreeStyle 293-F, 16 h
Experimental: TREx™-mG2A-NFAT-bla Freestyle293F cells were stimulated for 16 hours with doxycycline in the presence of 0.5% DMSO. Cells were then loaded with LiveBLAzer™-FRET B/G (CCF4-AM) for 2 hours. Fluorescence emission values at 460 nm and 530 nm are obtained using a standard florescence plate reader and the Blue/Green Emission ratios are plotted against the concentration of the stimulant.

[2] = tested on: T-REx™-GPR23-CRE-bla-CHO-K1 clone H6-E2; experiment: T-REx-GPR23-CRE-bla-CHO-K1 clone H6-E2 beta-lactamase reporter assay (induction); type: cell-based, Chinese hamster; conditions: for EC50: Cricetulus griseus
Experimental: Six clones selected for further testing were expanded and retested for their inducible GPR23 specific activity. The clones were plated at 25,000 cells per well in a 96 well black walled clear bottom tissue culture assay plate. The plates were than placed at 37° C. 5% CO2 for 24 hrs to allow the cells to attach to the assay plate. The complete media was then removed from the plate and replaced with assay media (DMEM+0.1% BSA) containing 100 ng/ml pertussis toxin with or without 1 μg/ml tetracycline. The plates were placed at 37° C. 5% CO2 for 16 hrs to allow the induced expression of the GPR23 receptor. The cells were then loaded with LiveBLAzer™-FRET B/G substrate (2 μM) containing solution D for 2 hrs. To determine the optimal cell density for this assay the cells were plated at 2,500, 5,000, 10,000, and 20,000 cells per well in a 384 well black walled clear bottom tissue culture assay plate in complete media (DMEM+10% FBS). The plates were than placed at 37° C. 5% CO2 for 24 hrs to allow the cells to attach to the assay plate. The complete media was then removed from the plate and replaced with assay media (DMEM+0.1% BSA) containing 100 ng/ml pertussis toxin and a four fold dilution series of doxycycline starting at 1 μg/ml. The plates were placed at 37° C./5% CO2 for 16 hrs to allow the induced expression of the GPR23 receptor. The cells were then loaded with LiveBLAzer™-FRET B/G substrate (2 μM) containing solution D for 2 hrs. The cells were plated at 20,000 cells per well in a 384 well black walled clear bottom tissue culture assay plate in complete media (DMEM+10% FBS). The plates were then placed at 37° C. 5% CO2 for 6 hrs to allow the cells to attach to the assay plate. The complete media was then removed from the plate and replaced with assay media (DMEM+0.1% BSA) containing 100 ng/ml pertussis toxin, 0%, 0.25%, 0.5%, or 1.0% DMSO, and a three fold dilution series of doxycycline starting at 1 μg/ml. The plates were placed at 37° C./5% CO2 for 16 hrs to allow the induced expression of the GPR23 receptor. The cells were then loaded with LiveBLAzer™-FRET B/G substrate (2 μM) containing solution D for 2 hrs. The cells were plated at 20,000 cells per well in a 384 well black walled clear bottom tissue culture assay plate in complete media (DMEM+10% FBS). The plates were than placed at 37° C. 5% CO2 for 6 hrs to allow the cells to attach to the assay plate. The complete media was then removed from the plate and replaced with assay media (DMEM+0.1% BSA) containing 100 ng/ml pertussis toxin, 0.5% DMSO, and a three fold dilution series of doxycycline starting at 1 μg/ml. The plates were placed at 37° C. 5% CO2 for 16, 20 or 24 hrs to allow the induced expression of the GPR23 receptor. The cells were then loaded with LiveBLAzer™-FRET B/G substrate (2 μM) containing solution D for 2 hrs. Dose response of T-REx-GPR23-CRE-bla CHO-K1 cells to Doxycycline. T-REx-GPR23-CRE-bla CHO-K1 cells were plated in Growth Media (+) and allowed to attach to the tissue culture plate for 6 hrs. They were then induced for GPR23 expression overnight with doxycycline for 16 hrs in Assay Media. Cells were then loaded with LiveBLAzer™-FRET B/G Substrate (CCF4-AM) for 2 hours. Fluorescence emission values at 460 nm and 530 nm were obtained using a standard florescence plate reader and the Blue/Green Emission Ratios were plotted against the indicated concentrations of doxycycline (FIG. 40).

Structure (SMILES): C[C@H]1c2cccc(O)c2C(=O)C2=C(O)[C@]3(O)C(=O)C(C(N)=O)=C(O)[C@@H](N(C)C)[C@@H]3[C@@H](O)[C@@H]21 [Doxycycline]
- EC50 ([1]; clone #2, 0.5% DMSO): 0.386 ng/mL (≈ 0.869 nM)
- EC50 ([1]; clone #25, 0.5% DMSO): 1.12 ng/mL (≈ 2.52 nM)
- EC50 ([1]; clone #53, 0.5% DMSO): 0.524 ng/mL (≈ 1.18 nM)
- maximum response ratio ([2]; 20,000 cells per well): 5.7 fold
- EC50 ([2]; 16 h, 0% DMSO, 20,000 cells per well): 3.3 ng/mL
- EC50 ([2]; 16 h, 0.25% DMSO, 20,000 cells per well): 4 ng/mL
- EC50 ([2]; 16 h, 0.5% DMSO, 20,000 cells per well): 4 ng/mL
- EC50 ([2]; 16 h, 1.0% DMSO, 20,000 cells per well): 5.1 ng/mL
- EC50 ([2]; 16 h, 2,500 cells/well, 16 hrs induction): 1.3 ng/mL
- EC50 ([2]; 16 h, 5,000 cells/well, 16 hrs induction): 1 ng/mL
- EC50 ([2]; 16 h, 10,000 cells/well, 16 hrs induction): 1.6 ng/mL
- EC50 ([2]; 16 h, 20,000 cells/well, 16 hrs induction): 2 ng/mL
- EC50 ([2]; 16 h, 16 hours induction, 0.5% DMSO): 4 ng/mL
- EC50 ([2]; 20 h, 20 hours induction, 0.5% DMSO): 1.9 ng/mL
- EC50 ([2]; 24 h, 24 hours induction, 0.5% DMSO): 2 ng/mL
- EC50 ([2]; representative data, 16 hrs induction, 2 hours loading): 1.7 nM
